Test results as given in patent US6974664B2, “Screening method for cancer therapeutics and stable antitumor drug” (The Board of Trustees of the Leland Stanford University, priority 2000, dated 2005).

Assays:
Jurkat cells = test: Sensitization of Jurkat cells to apoptolidin by oxamate or deoxyglucose; format: cell-based
Procedure: For example, Jurkat cells planted at 40,000 cells per well and treated with 1 μM of apoptolidin show no cell death over a time period of 20 hours. […] Treatment with these amounts of oxamate alone has no effect. (Oxamate is a known inhibitor of lactate dehydrogenase; which converts pyruvate to lactate.)
Another compound known to repress the flow of glucose through the fermentative pathway is deoxyglucose which competes with glucose for this pathway but results in a dead end. […] Deoxyglucose alone at the control concentrations has no effect.

LYas cells = test: % killing of LYas cells with apoptolidin or oligomycin plus oxamate; format: cell-based, murine; conditions: 7 hours; for lowest concentration showing substantial killing in presence of oxamate: LYas cells 1×10^6 ml, with oxamate
Procedure: Similar results are shown in FIG. 8 for LYas cells, where cells planted at 1×10^6 ml were assessed for % killing after 7 hours when treated with various concentrations of apoptolidin or oligomycin in the presence of various concentrations of oxamate. When no apoptosis drugs are administered, there is no effect of oxamate up to a concentration of 15 mM. However, at concentrations where the oxamate alone has no effect, both oligomycin and apoptolidin were able to show substantial killing at concentrations as low as 0.1 mM.

[1] = target: T1, yeast mitochondrial FOF1-ATP synthase (Saccharomyces cerevisiae, UniProt P00830+P07251+P38077+P61829); test: Yeast mitochondrial ATPase activity assay; format: biochemical; conditions: for consumption of NADH: 80 μM oligomycin or 87 μM apoptolidin, 20 μg yeast mitochondrial protein; for Ki: yeast mitochondria, pH 8, read-out: calculated Ki, ATPase activity
T1 construct: 20 μg of yeast mitochondrial protein (as measured by the Lowry method) was added to reaction buffer; endogenous in cells; host or cells: Crude mitochondria from Saccharomyces cerevisiae strain DBY7286 grown on lactate
Procedure: The assay is that described in Example 4 hereinbelow where the combination of pyruvate kinase and LDH effect conversion of phosphoenol pyruvate to lactate in the presence of ATP and NADH. With increasing concentrations of either drug, the specific activity of the enzyme rapidly declines. The calculated Ki values for oligomycin and apoptolidin are 1 μM and 5 μM respectively. Although the observed Ki for apoptolidin is five-fold higher than that for oligomycin, this may be an underestimate of the potency of apoptolidin. […] Mitochondrial ATPase activity assays are typically performed at pH 8. Thus, the true Ki for apoptolidin may be lower than that observed herein and accounts for the observation the IC50 values for apoptolidin against both LYas as well as MCF7 cells are substantially lower than the measured Ki against mitochondrial ATPase. This difference might be explained by a preference for mammalian ATPase over yeast ATPase, or by the possibility that apoptosis via this pathway is a dominant phenotype.
Crude yeast mitochondria were isolated from a lactate grown Saccharomyces cerevisiae strain DBY7286 (mata, ura-/-) according to published procedures. Briefly, 2 L shake flasks of yeast were grown up on semisynthetic lactate medium at 30° C. with vigorous shaking to an OD600 of 3. Cells were collected at 4000 g and the wet weight of the pellet was determined. Cells were converted to spheroplasts by a 30 minute incubation at 30° C. with 2.5 mg Zymolyase 20T (ICN Biochemicals) per gram of packed cells in a volume of 2 ml per gram of packed cells in Buffer A (1.2 M sorbitol, 20 mM potassium phosphate, pH 7.4). The Zymolyase 20T was washed out twice by centrifugation at 4000 g and resuspension in Buffer A. The spheroplasts were then resuspended in Buffer B (0.6 M sorbitol, 20 mM K^+ MES, pH6.0) with 0.5 mM PMSF and homogenized in a 40 ml glass Dounce homogenizer using 15 strokes with a tight-fitting pestle. The unbroken spheroplasts were collected by centrifugation at 1500 g and rehomogenized with 15 strokes in Buffer B plus PMSF. […] The protein concentration was determined by the Lowry assay and the dark brown mitochondria were resuspended in Buffer C (0.6 M sorbitol, 20 mM HEPES, pH 7.4). Mitochondria were prepared fresh and ATPase activity was measured within 6 hours.
Mitochondrial ATPase activity was measured by standard methods. Briefly, 20 μg of yeast mitochondrial protein (as measured by the Lowry method) was added to reaction buffer containing 50 mM Tris (pH 8.0), 1 mM ATP, 0.3 mM NADH, 3.3 mM MgCl2, 2 μg/ml antimycin A, 1 mM phosphoenol pyruvate, 5 U/ml lactate dehydrogenase, and 2.5 U/ml pyruvate kinase at 28° C. […]

[2] = system: mouse B cell lymphoma cell line LYAS; test: FACS staining for annexin V, LYAS cells; format: cell-based; conditions: 6 hours incubation, read-out: IC50, percentage of annexin V+ cells
Procedure: (§1) Activity was measured by FACS staining for annexin V and by MTT assay.
The mouse B cell lymphoma cell line LYAS was incubated with apoptolidin in a compound of formula 1 for 6 hours. The treating compounds were removed and the cells were stained with annexin V-CY5PE for 15 minutes and washed 3 times. Cells were analyzed on the FACSAN and the percentage of annexin V+ cells was quantified. The IC50 of the compound of formula 1 was 10 μM; the IC50 of apoptolidin was 100 nM.

[3] = system: breast carcinoma cell line MCF-7; test: MTT assay, MCF-7 cells; format: cell-based; conditions: Homo sapiens, MCF7; MCF-7, 120 hours
Procedure: as §1
The breast carcinoma cell line MCF-7 was tested in 96-well plates in triplicate. Dilutions of apoptolidin or the compound of formula 1 were added to the wells for 120 hours. MTT was then added to the wells at a final concentration of 0.5 mg/ml. The supernatant was removed and the crystals dissolved in 40 mM HCl and isopropanol. The plates were scanned on a microplate reader at 595 nm. The IC50 of the compound of formula 1 was 10 μM; the IC50 of apoptolidin was 90 nM.

[4] = Stability by analytical reverse phase HPLC at pH 4, 7 and 10; format: physicochemical; conditions: for time structure retained: pH 4; for time remained intact / decomposition: pH 10
Procedure: Stability was monitored by an analytical reverse phase HBLC using a Beckman C18 column (4.6 mm×25 cm). Stability was analyzed in this manner at pH 4, 7 and 10, both for apoptolidin and the compound of formula 1. At pH 4, apoptolidin retained its structure for 24 hours; the compound of formula 1 for at least 28 hours when observation was terminated.

PARP = PARP cleavage in the presence of apoptolidin; format: cell-based; conditions: 1 μM apoptolidin, within 6 hours
Description: Among those cells which have high ATP requirements, aerobic cells are sensitive, while anaerobic cells are resistant.

[5] = system: mouse B cell lymphoma cell line LYAS; conditions: FACS staining for Annexin V; cited from earlier work
[6] = system: breast carcinoma cell line MCF-7; conditions: MCF-7, MTT assay; cited from earlier work

| Structure (SMILES) | consumption of NADH [1] | Ki [1] | lowest concentration showing substantial killing in presence of oxamate (LYas cells) | IC50 [2] | IC50 [3] | time structure retained [4] | time remained intact / decomposition [4] | further results |
| --- | --- | --- | --- | --- | --- | --- | --- | --- |
| NC(=O)C(=O)O [oxamate] |  |  |  |  |  |  |  | effect on cell death, enhancer alone (Jurkat cells; oxamate alone, 5 mM and 50 mM): no effect; effect on % killing, oxamate alone (LYas cells; no apoptosis drug, up to 15 mM oxamate): no effect |
| O=CC[C@@H](O)[C@H](O)[C@H](O)CO [deoxyglucose, 2-deoxyglucose] |  |  |  |  |  |  |  | effect on cell death, enhancer alone (Jurkat cells; deoxyglucose alone at the control concentrations): no effect; lowest deoxyglucose concentration at which apoptolidin effects apoptosis (Jurkat cells; with 1 μM apoptolidin): 5 mM |
| CC[C@H]1/C=C/C=C/C[C@@H](C)[C@H](O)[C@@](C)(O)C(=O)[C@@H](C)[C@H](O)[C@@H](C)C(=O)[C@@H](C)[C@H](O)[C@@H](C)/C=C/C(=O)O[C@@H]2[C@H](C)[C@H](CC1)O[C@]1(CC[C@H](C)[C@H](C[C@@H](C)O)O1)[C@H]2C [oligomycin] | dramatically reduced | 1000 nM | 0.1 mM |  |  |  |  |  |
| COC[C@@H](C[C@H]1O[C@@](O)([C@H](O)[C@@H]2C[C@H](OC)[C@@H](O)CC/C=C(C)/C=C/[C@@H](O[C@@H]3O[C@@H](C)[C@H](OC)[C@@H](O)[C@@H]3O)[C@H](C)/C=C(C)/C=C(C)/C=C(\C)C(=O)O2)[C@H](C)[C@@H](O)[C@H]1C)OC1C[C@](C)(O)[C@@H](O[C@H]2C[C@@H](OC)[C@H](O)[C@@H](C)O2)[C@H](C)O1 (stereo partly drawn) [apoptolidin] | dramatically reduced | 5000 nM | 0.1 mM | 100 nM | 90 nM | 24 h | decomposed almost immediately | half-life ([4]; buffer, pH 7, read-out: decomposition half-life (converted)): ~5 h; PARP cleavage (PARP): completely cleaved; cell death (Jurkat cells; 1 μM apoptolidin + 5 mM oxamate): does not dramatically change this result; time at which cell death begins (Jurkat cells; 1 μM apoptolidin + 50 mM oxamate): four; cells killed (Jurkat cells; 1 μM apoptolidin + 50 mM oxamate, by 20 hours): 95%; cell death (Jurkat cells; 1 μM apoptolidin alone, 40,000 cells per well, over 20 hours): no cell death |
| COC[C@H](O)C[C@H]1O[C@@](O)([C@H](O)[C@@H]2C[C@H](OC)[C@@H](O)CC/C=C(C)/C=C/[C@@H](O[C@@H]3OC(C)[C@H](OC)[C@@H](O)[C@@H]3O)[C@H](C)/C=C(C)/C=C(C)/C=C(\C)C(=O)O2)C(C)=C[C@H]1C (stereo partly drawn) [compound of formula 1] |  |  |  | 10000 nM | 10000 nM | at least 28 hours | at least 28 hours | time remained intact ([4]; pH 7): at least 28 hours; cytotoxic activity relative to apoptolidin [5]: 1%; cytotoxic activity relative to apoptolidin [6]: 1% |
